Data published in ChEMBL document CHEMBL5715260, “Selectivity Literature for EUbOPEN Chemogenomic Library” (2024).
One block for each compound: values may come before it.

Experiments:
[1] = biological target: Nuclear receptor subfamily 4immunitygroup A member 1 (Homo sapiens) (UniProt P22736); assay: Selectivity interaction (Reporter gene assay) EUB0001153a NR4A1; parameters: recommended concentration 10 uM; settings: screened at recom. conc., Selectivity number of off-targets 1.0, Selectivity number of targets 5.0, Source Knowledge inhouse
[2] = biological target: T1, Hepatocyte nuclear factor 4-alpha (Homo sapiens) (UniProt P41235); assay: Selectivity interaction (Reporter gene assay) EUB0001153a HNF4A; parameters: recommended concentration 10 uM
T1 sequence (whole entry): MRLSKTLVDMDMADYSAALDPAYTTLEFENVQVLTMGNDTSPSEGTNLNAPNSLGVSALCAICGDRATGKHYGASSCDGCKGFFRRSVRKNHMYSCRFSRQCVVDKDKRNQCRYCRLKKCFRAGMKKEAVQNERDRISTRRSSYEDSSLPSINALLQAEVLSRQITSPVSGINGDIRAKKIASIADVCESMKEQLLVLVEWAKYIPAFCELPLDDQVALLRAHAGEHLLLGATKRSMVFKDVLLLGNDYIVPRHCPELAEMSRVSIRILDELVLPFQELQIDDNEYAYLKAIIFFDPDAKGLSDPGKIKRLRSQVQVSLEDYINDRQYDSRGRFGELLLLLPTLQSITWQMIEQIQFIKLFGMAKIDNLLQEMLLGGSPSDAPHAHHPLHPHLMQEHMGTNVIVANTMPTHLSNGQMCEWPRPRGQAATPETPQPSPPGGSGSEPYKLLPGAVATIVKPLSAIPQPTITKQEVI

[3] = biological target: T2, Nuclear receptor subfamily 2 group C member 1 (Homo sapiens) (UniProt P13056); assay: Selectivity interaction (Reporter gene assay) EUB0001153a NR2C1; parameters: recommended concentration 10 uM
T2 sequence (whole entry): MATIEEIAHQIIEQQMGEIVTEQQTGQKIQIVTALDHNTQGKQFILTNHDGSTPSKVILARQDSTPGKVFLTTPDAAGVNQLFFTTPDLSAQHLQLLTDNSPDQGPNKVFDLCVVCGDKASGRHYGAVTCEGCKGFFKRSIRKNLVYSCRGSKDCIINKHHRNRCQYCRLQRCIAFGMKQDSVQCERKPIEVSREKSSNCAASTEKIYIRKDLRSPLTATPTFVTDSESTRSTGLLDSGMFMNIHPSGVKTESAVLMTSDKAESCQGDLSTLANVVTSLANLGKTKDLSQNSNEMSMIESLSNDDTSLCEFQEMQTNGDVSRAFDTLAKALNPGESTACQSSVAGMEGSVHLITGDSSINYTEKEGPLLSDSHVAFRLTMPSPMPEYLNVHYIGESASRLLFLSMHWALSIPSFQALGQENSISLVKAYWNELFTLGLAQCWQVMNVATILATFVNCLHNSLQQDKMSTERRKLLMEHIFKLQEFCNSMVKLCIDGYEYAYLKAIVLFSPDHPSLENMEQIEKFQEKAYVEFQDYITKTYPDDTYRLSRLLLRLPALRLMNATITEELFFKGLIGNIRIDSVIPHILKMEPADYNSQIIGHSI

[4] = biological target: Nuclear receptor subfamily 2 group E member 1 (Homo sapiens) (UniProt Q9Y466); assay: Selectivity interaction (Reporter gene assay) EUB0001153a NR2E1; parameters: recommended concentration 10 uM
[5] = biological target: Steroidogenic factor 1 (Homo sapiens) (UniProt Q13285); assay: Selectivity interaction (Reporter gene assay) EUB0001153a NR5A1; parameters: recommended concentration 10 uM
[6] = biological target: T3, Alpha trans-inducing protein (Human alphaherpesvirus 1) (UniProt A0A5J6DW59); assay: Selectivity interaction (Reporter gene assay) EUB0001153a UL48; parameters: recommended concentration 10 uM
[7] = biological target: T4, Retinoic acid receptor RXR-alpha (Homo sapiens) (UniProt P19793); assay: Selectivity interaction (Reporter gene assay) EUB0001153a RXRA; parameters: recommended concentration 10 uM; settings: reference bexarotene 1 uM, Selectivity number of off-targets 0.0, Selectivity number of targets 1.0, Source Knowledge inhouse
T4 sequence (whole entry): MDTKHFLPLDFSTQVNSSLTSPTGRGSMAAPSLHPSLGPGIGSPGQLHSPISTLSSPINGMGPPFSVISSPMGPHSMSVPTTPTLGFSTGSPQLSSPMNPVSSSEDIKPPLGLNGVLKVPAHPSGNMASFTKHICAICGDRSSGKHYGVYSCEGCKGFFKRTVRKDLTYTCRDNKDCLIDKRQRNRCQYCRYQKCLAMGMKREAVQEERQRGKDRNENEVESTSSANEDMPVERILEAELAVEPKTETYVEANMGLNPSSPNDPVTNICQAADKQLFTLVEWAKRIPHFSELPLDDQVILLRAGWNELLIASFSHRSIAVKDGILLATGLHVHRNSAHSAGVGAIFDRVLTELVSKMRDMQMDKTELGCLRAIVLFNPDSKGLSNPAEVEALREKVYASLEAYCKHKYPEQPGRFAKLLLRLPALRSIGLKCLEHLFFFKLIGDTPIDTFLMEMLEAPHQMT

[8] = biological target: Peroxisome proliferator-activated receptor alpha (Homo sapiens) (UniProt Q07869); assay: Selectivity interaction (Reporter gene assay) EUB0001149a PPARA; parameters: recommended concentration 1 uM; settings: screened at recom. conc., Selectivity number of off-targets 1.0, Selectivity number of targets 19.0, Source Knowledge inhouse
[9] = biological target: T1, Hepatocyte nuclear factor 4-alpha (Homo sapiens); assay: Selectivity interaction (Reporter gene assay) EUB0001149a HNF4A; parameters: recommended concentration 1 uM
[10] = biological target: T2, Nuclear receptor subfamily 2 group C member 1 (Homo sapiens); assay: Selectivity interaction (Reporter gene assay) EUB0001149a NR2C1; parameters: recommended concentration 1 uM
[11] = biological target: Nuclear receptor subfamily 2 group E member 1 (Homo sapiens) (UniProt Q9Y466); assay: Selectivity interaction (Reporter gene assay) EUB0001149a NR2E1; parameters: recommended concentration 1 uM
[12] = biological target: Nuclear receptor subfamily 4immunitygroup A member 1 (Homo sapiens) (UniProt P22736); assay: Selectivity interaction (Reporter gene assay) EUB0001149a NR4A1; parameters: recommended concentration 1 uM
[13] = biological target: Steroidogenic factor 1 (Homo sapiens) (UniProt Q13285); assay: Selectivity interaction (Reporter gene assay) EUB0001149a NR5A1; parameters: recommended concentration 1 uM
[14] = biological target: T3, Alpha trans-inducing protein (Human alphaherpesvirus 1); assay: Selectivity interaction (Reporter gene assay) EUB0001149a UL48; parameters: recommended concentration 1 uM
[15] = biological target: T4, Retinoic acid receptor RXR-alpha (Homo sapiens); assay: Selectivity interaction (Reporter gene assay) EUB0001149a RXRA; parameters: recommended concentration 1 uM; settings: reference bexarotene 1 uM, Selectivity number of off-targets 0.0, Selectivity number of targets 1.0, Source Knowledge inhouse
[16] = biological target: T1, Hepatocyte nuclear factor 4-alpha (Homo sapiens); assay: Selectivity interaction (Reporter gene assay) EUB0001148a HNF4A; parameters: recommended concentration 1 uM
[17] = biological target: T2, Nuclear receptor subfamily 2 group C member 1 (Homo sapiens); assay: Selectivity interaction (Reporter gene assay) EUB0001148a NR2C1; parameters: recommended concentration 1 uM
[18] = biological target: Nuclear receptor subfamily 2 group E member 1 (Homo sapiens) (UniProt Q9Y466); assay: Selectivity interaction (Reporter gene assay) EUB0001148a NR2E1; parameters: recommended concentration 1 uM
[19] = biological target: Nuclear receptor subfamily 4immunitygroup A member 1 (Homo sapiens) (UniProt P22736); assay: Selectivity interaction (Reporter gene assay) EUB0001148a NR4A1; parameters: recommended concentration 1 uM
[20] = biological target: Steroidogenic factor 1 (Homo sapiens) (UniProt Q13285); assay: Selectivity interaction (Reporter gene assay) EUB0001148a NR5A1; parameters: recommended concentration 1 uM
[21] = biological target: T3, Alpha trans-inducing protein (Human alphaherpesvirus 1); assay: Selectivity interaction (Reporter gene assay) EUB0001148a UL48; parameters: recommended concentration 1 uM
[22] = biological target: T4, Retinoic acid receptor RXR-alpha (Homo sapiens); assay: Selectivity interaction (Reporter gene assay) EUB0001148a RXRA; parameters: recommended concentration 1 uM
[23] = biological target: T2, Nuclear receptor subfamily 2 group C member 1 (Homo sapiens); assay: Selectivity interaction (Reporter gene assay) EUB0001152a NR2C1; parameters: recommended concentration 10 uM; settings: screened at recom. conc., Selectivity number of off-targets 1.0, Selectivity number of targets 5.0, Source Knowledge inhouse
[24] = biological target: T1, Hepatocyte nuclear factor 4-alpha (Homo sapiens); assay: Selectivity interaction (Reporter gene assay) EUB0001152a HNF4A; parameters: recommended concentration 10 uM
[25] = biological target: Nuclear receptor subfamily 2 group E member 1 (Homo sapiens) (UniProt Q9Y466); assay: Selectivity interaction (Reporter gene assay) EUB0001152a NR2E1; parameters: recommended concentration 10 uM
[26] = biological target: Nuclear receptor subfamily 4immunitygroup A member 1 (Homo sapiens) (UniProt P22736); assay: Selectivity interaction (Reporter gene assay) EUB0001152a NR4A1; parameters: recommended concentration 10 uM
[27] = biological target: Steroidogenic factor 1 (Homo sapiens) (UniProt Q13285); assay: Selectivity interaction (Reporter gene assay) EUB0001152a NR5A1; parameters: recommended concentration 10 uM
[28] = biological target: T3, Alpha trans-inducing protein (Human alphaherpesvirus 1); assay: Selectivity interaction (Reporter gene assay) EUB0001152a UL48; parameters: recommended concentration 10 uM
[29] = biological target: T4, Retinoic acid receptor RXR-alpha (Homo sapiens); assay: Selectivity interaction (Reporter gene assay) EUB0001152a RXRA; parameters: recommended concentration 10 uM
[30] = biological target: T1, Hepatocyte nuclear factor 4-alpha (Homo sapiens); assay: Selectivity interaction (Reporter gene assay) EUB0001147a HNF4A; parameters: recommended concentration 1 uM
[31] = biological target: T2, Nuclear receptor subfamily 2 group C member 1 (Homo sapiens); assay: Selectivity interaction (Reporter gene assay) EUB0001147a NR2C1; parameters: recommended concentration 1 uM
[32] = biological target: Nuclear receptor subfamily 2 group E member 1 (Homo sapiens) (UniProt Q9Y466); assay: Selectivity interaction (Reporter gene assay) EUB0001147a NR2E1; parameters: recommended concentration 1 uM
[33] = biological target: Nuclear receptor subfamily 4immunitygroup A member 1 (Homo sapiens) (UniProt P22736); assay: Selectivity interaction (Reporter gene assay) EUB0001147a NR4A1; parameters: recommended concentration 1 uM
[34] = biological target: Steroidogenic factor 1 (Homo sapiens) (UniProt Q13285); assay: Selectivity interaction (Reporter gene assay) EUB0001147a NR5A1; parameters: recommended concentration 1 uM
[35] = biological target: T3, Alpha trans-inducing protein (Human alphaherpesvirus 1); assay: Selectivity interaction (Reporter gene assay) EUB0001147a UL48; parameters: recommended concentration 1 uM
[36] = biological target: T4, Retinoic acid receptor RXR-alpha (Homo sapiens); assay: Selectivity interaction (Reporter gene assay) EUB0001147a RXRA; parameters: recommended concentration 1 uM; settings: reference bexarotene 1 uM, Selectivity number of off-targets 0.0, Selectivity number of targets 1.0, Source Knowledge inhouse

Chain of Steroidogenic factor 1 (Homo sapiens) (Q13285 whole entry): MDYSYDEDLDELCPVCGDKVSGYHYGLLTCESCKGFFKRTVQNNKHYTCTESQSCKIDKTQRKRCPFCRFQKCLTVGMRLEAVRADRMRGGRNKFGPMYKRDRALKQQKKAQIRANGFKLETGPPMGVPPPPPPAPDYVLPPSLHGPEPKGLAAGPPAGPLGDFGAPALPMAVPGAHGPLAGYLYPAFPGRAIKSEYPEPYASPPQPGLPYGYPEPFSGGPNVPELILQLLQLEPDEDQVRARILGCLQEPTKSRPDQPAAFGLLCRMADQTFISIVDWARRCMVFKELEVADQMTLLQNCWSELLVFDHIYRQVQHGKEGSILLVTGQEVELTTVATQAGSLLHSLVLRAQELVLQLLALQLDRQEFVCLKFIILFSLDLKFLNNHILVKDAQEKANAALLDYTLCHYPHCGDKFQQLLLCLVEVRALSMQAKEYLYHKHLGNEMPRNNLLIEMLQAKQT
Chain of Nuclear receptor subfamily 2 group E member 1 (Homo sapiens) (Q9Y466 whole entry): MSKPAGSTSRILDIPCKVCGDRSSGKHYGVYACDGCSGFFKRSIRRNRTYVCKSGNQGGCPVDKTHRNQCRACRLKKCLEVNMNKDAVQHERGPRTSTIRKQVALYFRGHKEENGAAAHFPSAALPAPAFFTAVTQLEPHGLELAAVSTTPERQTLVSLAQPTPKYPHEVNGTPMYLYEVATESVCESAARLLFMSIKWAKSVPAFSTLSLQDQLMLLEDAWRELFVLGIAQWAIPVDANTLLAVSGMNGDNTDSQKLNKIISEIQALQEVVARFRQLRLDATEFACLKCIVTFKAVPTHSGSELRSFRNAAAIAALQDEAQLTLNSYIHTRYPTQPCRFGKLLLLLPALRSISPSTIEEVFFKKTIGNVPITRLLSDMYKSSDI
T3 sequence (A0A5J6DW59 as listed by the source): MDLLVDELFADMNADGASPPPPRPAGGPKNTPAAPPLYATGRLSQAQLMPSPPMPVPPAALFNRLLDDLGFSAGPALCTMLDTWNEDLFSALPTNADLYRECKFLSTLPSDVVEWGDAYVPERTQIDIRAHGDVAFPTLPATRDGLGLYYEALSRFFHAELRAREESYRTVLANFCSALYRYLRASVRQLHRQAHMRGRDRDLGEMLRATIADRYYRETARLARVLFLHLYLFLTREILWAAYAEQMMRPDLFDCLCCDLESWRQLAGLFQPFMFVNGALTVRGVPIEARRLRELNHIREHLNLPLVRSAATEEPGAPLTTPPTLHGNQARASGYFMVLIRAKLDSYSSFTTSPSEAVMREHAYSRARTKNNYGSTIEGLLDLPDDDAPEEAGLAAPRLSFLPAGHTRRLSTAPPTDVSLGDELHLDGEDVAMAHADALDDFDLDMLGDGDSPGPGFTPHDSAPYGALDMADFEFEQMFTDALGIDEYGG
Chain of Nuclear receptor subfamily 4immunitygroup A member 1 (Homo sapiens) (P22736 whole entry): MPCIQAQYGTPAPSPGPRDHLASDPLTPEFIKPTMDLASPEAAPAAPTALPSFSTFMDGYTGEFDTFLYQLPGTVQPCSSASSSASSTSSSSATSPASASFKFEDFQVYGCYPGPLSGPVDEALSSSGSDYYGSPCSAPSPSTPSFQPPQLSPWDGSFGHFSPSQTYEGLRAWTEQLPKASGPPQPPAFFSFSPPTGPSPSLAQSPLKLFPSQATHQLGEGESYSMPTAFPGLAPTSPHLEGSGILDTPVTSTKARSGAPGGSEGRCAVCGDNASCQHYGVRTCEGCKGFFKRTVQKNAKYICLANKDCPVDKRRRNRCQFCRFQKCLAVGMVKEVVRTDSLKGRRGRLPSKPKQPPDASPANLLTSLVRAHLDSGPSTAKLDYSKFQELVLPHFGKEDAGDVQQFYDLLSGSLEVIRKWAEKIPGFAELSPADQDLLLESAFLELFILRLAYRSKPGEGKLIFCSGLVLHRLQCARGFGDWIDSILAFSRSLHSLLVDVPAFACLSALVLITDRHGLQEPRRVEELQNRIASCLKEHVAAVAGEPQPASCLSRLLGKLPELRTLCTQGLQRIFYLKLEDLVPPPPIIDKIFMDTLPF
Chain of Peroxisome proliferator-activated receptor alpha (Homo sapiens) (Q07869 whole entry): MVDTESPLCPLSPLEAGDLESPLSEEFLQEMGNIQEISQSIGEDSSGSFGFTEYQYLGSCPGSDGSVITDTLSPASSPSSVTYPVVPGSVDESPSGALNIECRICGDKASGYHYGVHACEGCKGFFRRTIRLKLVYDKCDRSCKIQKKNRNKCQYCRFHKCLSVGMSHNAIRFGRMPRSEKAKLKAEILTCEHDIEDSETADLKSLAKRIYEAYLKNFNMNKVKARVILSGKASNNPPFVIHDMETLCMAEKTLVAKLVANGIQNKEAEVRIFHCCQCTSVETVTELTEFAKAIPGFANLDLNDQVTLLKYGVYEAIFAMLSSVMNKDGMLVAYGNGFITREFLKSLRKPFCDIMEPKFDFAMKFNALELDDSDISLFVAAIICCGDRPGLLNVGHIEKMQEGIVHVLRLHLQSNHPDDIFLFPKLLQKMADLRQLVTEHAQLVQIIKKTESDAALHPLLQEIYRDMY

SMILES: CCOC(=O)C1Cc2ccccc2CN1C(=O)c1ccc(SC)s1 (stereo unspecified)
- Fold activation [1]: 2.05
- Remaining activity [2]: 0.77
- Fold activation [3]: 1.13
- Fold activation [4]: 1.33
- Fold activation [5]: 1.11
- P-value [6]: 0.0358
- Relative activation [7]: 0.245%

SMILES: O=C(O)CCCc1cc2cc(Cl)ccc2n1S(=O)(=O)c1ccc2ncsc2c1
- Fold activation [8]: 5.01
- Fold activation [9]: 1.19
- Remaining activity [10]: 0.743
- Remaining activity [11]: 0.755
- Fold activation [12]: 1.09
- Fold activation [13]: 1.16
- P-value [14]: 0.0075
- Relative activation [15]: 1.07%

SMILES: CCOC(=O)N1CCC(CN(Cc2ccc(Cl)cc2)Cc2ccc([N+](=O)[O-])s2)C1 (stereo unspecified)
- Remaining activity [23]: 0.46
- Remaining activity [24]: 0.579
- Remaining activity [25]: 0.62
- Fold activation [26]: 1.3
- Remaining activity [27]: 0.905
- P-value [28]: 0.0179
- Relative activation [29]: 0.237%

Results, then the compound that gave them:

- Fold activation [16]: 1.1
- Fold activation [17]: 1.24
- Fold activation [18]: 1.05
- Fold activation [19]: 1.02
- Fold activation [20]: 1.05
- P-value [21]: 0.0001
- Relative activation [22]: 0.766%
SMILES: Cc1cc(SCc2sc(-c3ccc(C(F)(F)F)cc3)nc2C)ccc1OCC(=O)O

- Remaining activity [30]: 0.852
- Fold activation [31]: 1.41
- Fold activation [32]: 1.11
- Fold activation [33]: 1.25
- Remaining activity [34]: 0.871
- P-value [35]: 6.06e-07
- Relative activation [36]: 0.86%
SMILES: CSc1ccc(C(=O)/C=C/c2cc(C)c(OC(C)(C)C(=O)O)c(C)c2)cc1
